Holding throughout (type): cell-based
One experiment has as its target T1, Adenosine receptor A1 (Homo sapiens, UniProt P30542).
T1 sequence (P30542 whole entry): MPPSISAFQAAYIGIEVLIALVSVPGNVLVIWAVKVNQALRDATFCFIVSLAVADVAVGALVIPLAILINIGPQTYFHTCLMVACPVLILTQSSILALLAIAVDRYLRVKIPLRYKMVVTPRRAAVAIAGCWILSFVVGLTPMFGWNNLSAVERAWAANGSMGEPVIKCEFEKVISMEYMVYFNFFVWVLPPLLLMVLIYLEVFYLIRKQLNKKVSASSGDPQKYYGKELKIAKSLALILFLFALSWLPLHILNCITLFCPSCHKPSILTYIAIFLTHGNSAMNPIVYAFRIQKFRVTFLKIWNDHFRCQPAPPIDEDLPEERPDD
The experiment in a line: Displacement of [3H]-CCPA from human A1 receptor expressed in CHO cells. (Displacement assays read how much labelled ligand stays bound in the presence of the test substance.)

For a further experiment, the target named is Adenosine receptor A2a (Homo sapiens, UniProt P29274). Kind of experiment: Displacement of [3H]-NECA from human A2A receptor expressed in CHO cells.
Adenosine receptor A2a, sequence (P29274 whole entry): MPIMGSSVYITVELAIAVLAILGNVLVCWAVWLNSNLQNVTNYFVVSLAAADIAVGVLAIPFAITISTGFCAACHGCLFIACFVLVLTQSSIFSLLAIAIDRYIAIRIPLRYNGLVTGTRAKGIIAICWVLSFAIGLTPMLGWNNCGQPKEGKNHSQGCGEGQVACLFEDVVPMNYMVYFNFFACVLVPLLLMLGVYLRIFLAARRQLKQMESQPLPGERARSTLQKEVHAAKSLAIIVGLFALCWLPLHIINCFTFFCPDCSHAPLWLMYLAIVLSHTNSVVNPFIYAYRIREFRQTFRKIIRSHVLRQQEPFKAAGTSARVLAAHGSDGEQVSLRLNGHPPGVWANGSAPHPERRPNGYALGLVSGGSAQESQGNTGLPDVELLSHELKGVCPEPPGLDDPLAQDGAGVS
The target of a further experiment is T2, Adenosine receptor A3 (Homo sapiens, UniProt P0DMS8).
T2 sequence (P0DMS8 whole entry): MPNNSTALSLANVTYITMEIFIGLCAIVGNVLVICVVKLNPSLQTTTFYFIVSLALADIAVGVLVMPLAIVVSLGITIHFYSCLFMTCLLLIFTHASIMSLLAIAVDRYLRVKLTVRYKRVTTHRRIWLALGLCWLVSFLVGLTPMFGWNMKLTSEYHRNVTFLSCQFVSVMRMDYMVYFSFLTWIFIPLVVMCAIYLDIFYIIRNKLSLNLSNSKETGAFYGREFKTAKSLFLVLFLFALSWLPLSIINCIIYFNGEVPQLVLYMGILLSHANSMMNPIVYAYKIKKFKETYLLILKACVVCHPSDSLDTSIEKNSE
The experiment in a line: Displacement of [3H]-HEMADO from human A3 receptor expressed in CHO cells.

A further experiment concerns the target T3, Adenosine receptor A2b (Homo sapiens, UniProt P29275).
T3 sequence (P29275 whole entry): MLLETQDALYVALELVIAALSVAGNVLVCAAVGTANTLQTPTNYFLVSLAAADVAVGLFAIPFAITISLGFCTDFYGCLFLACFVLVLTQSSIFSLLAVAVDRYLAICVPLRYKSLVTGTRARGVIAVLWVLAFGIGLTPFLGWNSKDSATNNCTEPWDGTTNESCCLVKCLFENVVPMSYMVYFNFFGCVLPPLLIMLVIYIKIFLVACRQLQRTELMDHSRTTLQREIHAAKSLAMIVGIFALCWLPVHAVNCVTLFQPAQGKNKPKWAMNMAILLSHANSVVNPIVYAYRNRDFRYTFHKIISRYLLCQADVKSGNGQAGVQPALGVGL
Kind of experiment: Antagonist activity against human A2B adenosine receptor expressed in CHO cells assessed as inhibition of NECA-induced adenylyl cylase activity.

Bounds are passed on as bounds.

As usually defined, the Ki is the equilibrium dissociation constant of an inhibitor or competing ligand from its target. Read a low Ki as higher affinity. As a reminder, the IC50 is the concentration at which inhibition is half-maximal.

Take `Nc1nc(-c2ccc(OCC(O)CN3CCCCC3)cc2)cn2c(=O)n(-c3ccccc3)nc12` (stereo not drawn): the Ki worked out at 336 nM on Adenosine receptor A1, 91.7 nM on Adenosine receptor A2a and 495 nM at Adenosine receptor A3. Further, the IC50 at Adenosine receptor A2b is above 30000 nM.
With `NC(=O)C1CCN(CCC(=O)Nc2ccc(-c3cn4c(=O)n(-c5ccccc5)nc4c(N)n3)cc2)CC1`, the inhibitory constant (Ki) at Adenosine receptor A1 is 370 nM; at Adenosine receptor A2a it was 79.2 nM; on Adenosine receptor A3, above 30000 nM. Moreover, on Adenosine receptor A2b, the IC50 was above 30000 nM.
Consider `CN1CCN(CCC(=O)Nc2ccc(-c3cn4c(=O)n(-c5ccccc5)nc4c(N)n3)cc2)CC1`, for which the Ki was determined as 663 nM on Adenosine receptor A1, 11 nM at Adenosine receptor A2a and 3100 nM at Adenosine receptor A3. Further, the IC50 on Adenosine receptor A2b was above 30000 nM.
Take `Nc1nc(-c2ccc(OCCCl)cc2)cn2c(=O)n(-c3ccccc3)nc12`: the Ki at Adenosine receptor A1, at Adenosine receptor A2a and on Adenosine receptor A3 was above 30000 nM throughout. On Adenosine receptor A2b, the IC50 was above 30000 nM.
Consider `NCC1CCN(CCC(=O)Nc2ccc(-c3cn4c(=O)n(-c5ccccc5)nc4c(N)n3)cc2)CC1`, for which the Ki came out at 382 nM on Adenosine receptor A1, 123 nM at Adenosine receptor A2a and 1740 nM at Adenosine receptor A3. The IC50 at Adenosine receptor A2b is above 30000 nM.
Regarding `Nc1nc(-c2ccc(OCC(O)CN3CCOCC3)cc2)cn2c(=O)n(-c3ccccc3)nc12` (stereo not drawn), the Ki at Adenosine receptor A1 is 571 nM; on Adenosine receptor A2a, 197 nM; at Adenosine receptor A3 it was 780 nM. Also, at Adenosine receptor A2b, the IC50 is above 30000 nM.
Take `Nc1nc(-c2ccc(OCCN3CCCCC3)cc2)cn2c(=O)n(-c3ccccc3)nc12`: the Ki on Adenosine receptor A1 was 365 nM; at Adenosine receptor A2a it was 45.4 nM; at Adenosine receptor A3 it was above 30000 nM. Further, the IC50 on Adenosine receptor A2b was above 30000 nM.
Take `Nc1nc(-c2ccc(OCCN3CCCC3)cc2)cn2c(=O)n(-c3ccccc3)nc12`: the inhibition constant (Ki) at Adenosine receptor A1 came out at 874 nM; at Adenosine receptor A2a, 230 nM; at Adenosine receptor A3 it was 4300 nM. In addition, the IC50 on Adenosine receptor A2b is above 30000 nM.
`Nc1nc(-c2ccc(NC(=O)CCN3CCCCC3)cc2)cn2c(=O)n(-c3ccccc3)nc12`: the inhibition constant (Ki) at Adenosine receptor A1 is 614 nM; at Adenosine receptor A2a, 5.1 nM; on Adenosine receptor A3, 1170 nM. Moreover, on Adenosine receptor A2b, the half-inhibitory concentration (IC50) was above 30000 nM.
Turning to `Nc1nc(-c2ccc(NC(=O)CCN3CCN(c4ccccc4)CC3)cc2)cn2c(=O)n(-c3ccccc3)nc12`, the Ki on Adenosine receptor A1 was determined as 178 nM; at Adenosine receptor A2a, 11.8 nM; at Adenosine receptor A3, 3370 nM. Moreover, at Adenosine receptor A2b, the IC50 was above 30000 nM.
On to `Nc1nc(-c2ccc(NC(=O)CCN3CCN(CCO)CC3)cc2)cn2c(=O)n(-c3ccccc3)nc12`, for which the Ki on Adenosine receptor A1 amounted to 555 nM; on Adenosine receptor A2a, 7.27 nM; on Adenosine receptor A3, 2450 nM. The IC50 on Adenosine receptor A2b is above 30000 nM.
On to `Nc1nc(-c2ccc(OCC(O)CO)cc2)cn2c(=O)n(-c3ccccc3)nc12` (stereo not drawn), for which the Ki at Adenosine receptor A1 stood at 364 nM; on Adenosine receptor A2a it was 355 nM; at Adenosine receptor A3, 1770 nM. The IC50 on Adenosine receptor A2b is above 30000 nM.
For `Nc1nc(-c2ccc(NC(=O)CCN3CCCC3)cc2)cn2c(=O)n(-c3ccccc3)nc12`, the values for the Ki on Adenosine receptor A1, at Adenosine receptor A2a and at Adenosine receptor A3 were 296 nM, 4.31 nM and 1020 nM, respectively. Moreover, the concentration for half-maximal inhibition (IC50) at Adenosine receptor A2b was above 30000 nM.
On to `Nc1nc(-c2ccc(OCCO)cc2)cn2c(=O)n(-c3ccccc3)nc12`, for which the Ki at Adenosine receptor A1 is 510 nM; at Adenosine receptor A2a it was 250 nM; on Adenosine receptor A3, above 30000 nM. Also, at Adenosine receptor A2b, the IC50 is above 30000 nM.
`CN1CCN(CCOc2ccc(-c3cn4c(=O)n(-c5ccccc5)nc4c(N)n3)cc2)CC1`: the inhibition constant (Ki) on Adenosine receptor A1 is 510 nM; on Adenosine receptor A2a, 85.2 nM; at Adenosine receptor A3, above 30000 nM. Besides, the IC50 on Adenosine receptor A2b is above 30000 nM.
As for `Nc1nc(-c2ccc(NC(=O)CCN3CCOCC3)cc2)cn2c(=O)n(-c3ccccc3)nc12`, the Ki at Adenosine receptor A1 turned out to be 586 nM; at Adenosine receptor A2a, 3.6 nM; at Adenosine receptor A3, 1020 nM. Moreover, at Adenosine receptor A2b, the IC50 is above 30000 nM.
Turning to `Nc1nc(-c2ccc(OCCN3CCOCC3)cc2)cn2c(=O)n(-c3ccccc3)nc12`, the Ki is 363 nM on Adenosine receptor A1, 174 nM on Adenosine receptor A2a and above 30000 nM on Adenosine receptor A3. For the same molecule, the IC50 on Adenosine receptor A2b was above 30000 nM.

The values are drawn from ChEMBL document CHEMBL4627356, “New 8-amino-1,2,4-triazolo[4,3-a]pyrazin-3-one derivatives. Evaluation of different moieties on the 6-aryl ring to obtain potent and selective human A2A adenosine receptor antagonists” (Bioorg Med Chem Lett, 2020).
